Drawing on ChEMBL document CHEMBL1201862, “PubChem BioAssay data set” (2004), this text covers IC50 and EC50 for 20 molecules.

Calls of active or inactive are those of the source.

Assay type in all cases: functional
Experiment [1] deals with T1, Protein skinhead-1 (Caenorhabditis elegans, UniProt P34707).
T1 sequence (P34707 whole entry): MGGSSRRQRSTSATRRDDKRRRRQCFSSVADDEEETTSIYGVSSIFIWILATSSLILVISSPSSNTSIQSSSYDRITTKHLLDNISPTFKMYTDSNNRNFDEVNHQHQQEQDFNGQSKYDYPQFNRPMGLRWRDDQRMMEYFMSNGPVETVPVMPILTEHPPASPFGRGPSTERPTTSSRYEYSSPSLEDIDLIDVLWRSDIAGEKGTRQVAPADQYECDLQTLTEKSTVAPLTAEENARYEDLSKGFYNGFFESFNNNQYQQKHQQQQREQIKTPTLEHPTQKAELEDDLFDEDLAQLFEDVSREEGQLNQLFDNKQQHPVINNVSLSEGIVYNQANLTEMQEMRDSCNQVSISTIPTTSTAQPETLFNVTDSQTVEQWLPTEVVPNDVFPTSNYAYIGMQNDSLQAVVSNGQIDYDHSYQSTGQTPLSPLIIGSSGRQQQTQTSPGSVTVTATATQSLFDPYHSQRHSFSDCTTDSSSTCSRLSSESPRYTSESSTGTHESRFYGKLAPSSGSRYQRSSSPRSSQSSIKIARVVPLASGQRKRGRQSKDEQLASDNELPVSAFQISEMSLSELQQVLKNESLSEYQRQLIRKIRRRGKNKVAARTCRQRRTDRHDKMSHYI

In experiment [2] the target is T2, Corticotropin-releasing factor receptor 2/Corticotropin-releasing factor-binding protein (Homo sapiens, UniProt P24387+Q13324).
T2 sequence (Q13324 whole entry): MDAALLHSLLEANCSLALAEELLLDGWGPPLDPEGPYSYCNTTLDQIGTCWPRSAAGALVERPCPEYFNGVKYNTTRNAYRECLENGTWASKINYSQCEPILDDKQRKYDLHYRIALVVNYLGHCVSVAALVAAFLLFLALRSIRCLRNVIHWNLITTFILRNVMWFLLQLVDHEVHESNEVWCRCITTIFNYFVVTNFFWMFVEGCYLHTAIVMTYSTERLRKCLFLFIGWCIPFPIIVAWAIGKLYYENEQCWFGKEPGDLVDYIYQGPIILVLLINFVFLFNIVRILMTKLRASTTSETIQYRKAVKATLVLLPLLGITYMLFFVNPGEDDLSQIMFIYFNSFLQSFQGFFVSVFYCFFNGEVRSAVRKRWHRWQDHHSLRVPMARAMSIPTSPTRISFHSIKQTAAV
T2 sequence (P24387 whole entry): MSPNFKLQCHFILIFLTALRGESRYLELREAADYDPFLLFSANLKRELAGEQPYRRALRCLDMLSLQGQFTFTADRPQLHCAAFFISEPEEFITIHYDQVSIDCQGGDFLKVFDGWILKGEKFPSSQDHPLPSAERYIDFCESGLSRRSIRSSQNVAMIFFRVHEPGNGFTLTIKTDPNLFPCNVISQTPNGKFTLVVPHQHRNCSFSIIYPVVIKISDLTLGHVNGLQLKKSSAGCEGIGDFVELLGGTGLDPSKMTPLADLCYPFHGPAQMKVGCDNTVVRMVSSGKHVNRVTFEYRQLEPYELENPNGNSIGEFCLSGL
In words: activators of CRF receptor 2 with binding protein – uHTS hits, confirmation (AID 602473). The note with it: read-out: EC50_Mean.

Experiment [3] deals with T2, Corticotropin-releasing factor receptor 2/Corticotropin-releasing factor-binding protein. In words: Dose Response confirmation of uHTS hits for small molecule antagonists of the CRF-binding protein and CRF-R2 receptor complex. The note with it: read-out: IC50_Mean.

In the case of `C[C@](N)(CCP(=O)(O)O)C(=O)O`, the IC50 in experiment [1] is > 100 µM (inactive).

`Cc1cccc(NC2=NC(=O)/C(=C/c3cccn3C)S2)c1C`: in experiment [1], the IC50 is > 100 µM (inactive). With `COC(=O)c1cc(C#N)c(N(C)Cc2ccccc2)nc1C`, the EC50 in experiment [2] was > 53 µM (inactive). Also, in experiment [3], the IC50 is 5.03 µM (active). For the molecule `CC(C)OC(=O)CSc1nnnn1-c1ccc2c(c1)OCCO2`, the IC50 in experiment [1] is > 100 µM (inactive). For `COC(=O)C(F)(F)Sc1c(C)[nH]c2ccccc12`, in experiment [2], the EC50 is > 53 µM (inactive). For the same molecule, the IC50 in experiment [3] was 15.4 µM (active).

For the molecule `O=C(Cc1c(O)c2ccccc2[nH]c1=O)OC1CCCCC1`, the EC50 in experiment [2] was > 53 µM (inactive). The IC50 in experiment [3] was > 47.1 µM (inactive).

In the case of `CC1CCc2c(C(=O)Nc3ccccn3)csc2C1` (stereo unspecified), the EC50 in experiment [2] was > 53 µM (inactive). Moreover, in experiment [3], the IC50 was > 47.1 µM (inactive). As for `CN1CCN(CC(=O)Nc2cc(N(C)C)nc3ccccc23)CC1`, in experiment [2], the EC50 is > 53 µM (inactive). Besides, in experiment [3], the IC50 is > 47.1 µM (inactive).

Turning to `O=C(NCc1ccc(F)cc1)C(=O)NCC1OCCN1C(=O)c1ccc(Cl)cc1` (stereo unspecified), in experiment [2], the EC50 was > 53 µM (inactive). Also, in experiment [3], the IC50 is > 47.1 µM (inactive).

Regarding `C=CCN(c1ccccc1)S(=O)(=O)c1cccc(C(=O)OCC(=O)NCCOC)c1`, in experiment [2], the EC50 was > 53 µM (inactive). In experiment [3], the IC50 is > 47.1 µM (inactive). For the molecule `O=C(Nc1ccc(OC(=O)N2CCCC2)cc1)N1CCOCC1`, the IC50 in experiment [1] was > 100 µM (inactive).

As to `Cc1nc2nc(CSc3nc4ccccc4s3)cc(O)n2n1`, the IC50 in experiment [1] was > 100 µM (inactive). Turning to `COc1ccccc1NC(=O)CN1C(=O)CCS(=O)(=O)c2ccccc21`, the EC50 in experiment [2] was > 53 µM (inactive). Moreover, in experiment [3], the IC50 is > 47.1 µM (inactive). `CCn1c(CCC(=O)Nc2nc3c(s2)CCCC3)nc2cc(S(=O)(=O)N(C)C)ccc21`: the IC50 in experiment [1] is > 100 µM (inactive). `CCCOc1cc(C)c(S(=O)(=O)NCc2cccs2)cc1C`: the IC50 in experiment [1] is > 100 µM (inactive). As for `Cc1ccc(-c2ccc(SCC(=O)NCC3CCCO3)nn2)cc1` (stereo unspecified), the EC50 in experiment [2] is > 53 µM (inactive). Further, the IC50 in experiment [3] is > 47.1 µM (inactive). `O=Nc1nc2ncccn2c1-c1ccccc1`: the EC50 in experiment [2] is > 53 µM (inactive). Besides, the IC50 in experiment [3] was > 47.1 µM (inactive). For the molecule `Clc1ccc(N2CCN(c3ccnc(Cl)n3)CC2)cc1`, the IC50 in experiment [1] is 26.3 µM (active). As to `COc1ccc(Cc2c(-c3ccco3)nc3c(C)cc(Br)cn23)c(C)c1`, the IC50 in experiment [1] was > 100 µM (inactive). With `Cc1ccc(S(=O)(=O)NC2=NCN(C3CCN(Cc4ccccc4)CC3)CN2)cc1`, in experiment [2], the EC50 is > 53 µM (inactive). In addition, in experiment [3], the IC50 was > 47.1 µM (inactive).
